Measured values taken from patent US8853279B2, “Method for determining sensitivity or resistance to compounds that activate the brain serotonin system” (Cornell University, priority 2008, dated 2014).

Experiments:
wildtype mice = assay: Elevated plus maze at P90 after early life fluoxetine (P21-P40); type: in vivo; conditions: fluoxetine 18 mg/kg per day via drinking water P21-P40, tested at P90
Excerpt: (§1) FIG. 9. Anxiety-related behavior after early life flouxetine in BDNF Val66Met mice in the elevated plus maze test. (A). Percentage time spent in the open arm (B) and percentage of open arm entries in the plus maze, as well as (C) total distance traveled in wildtype) WT and BDNF^Met/Met (Met/Met) mice treated with water (H2O) or with flouxetine (FLX) from P21-P40. All results are presented as a mean±SEM determined from analysis of 5 mice/genotype (*p<0.05), Student's t test.
(§2) The feasibility of these timed pharmacological studies was first assessed. To BDNFMet mice, chronic fluoxetine (18 mg/kg per day) was administered via the drinking water from P21 (post-weaning)-P40 (adolescence) (FIG. 8) for a duration of time established to produce increased BDNF levels and anti-anxiety effects in adult mice [Dulawa, S. C., Holick, K. A., Gundersen, B., and Hen, R. (2004). Effects of chronic fluoxetine in animal models of anxiety and depression. Neuropsychopharmacology 29, 1321-1330; Duman, R. S., and Monteggia, L. M. (2006). A neurotrophic model for stress-related mood disorders. Biol Psychiatry 59, 1116-1127].
(§3) Early-life blockade of the 5-HT transporter alters emotional behavior in adult mice. Science 306, 879-881], which was not observed by this P21-P40 timed treatment.

BDNF^Met mice = assay: as above; type: in vivo; conditions: fluoxetine 18 mg/kg per day via drinking water P21-P40, tested at P90
Excerpt: as §1, §2, §3

BDNF^Met/Met mice = assay: Novelty-induced hypophagia after long-term fluoxetine in adult mice; type: in vivo; conditions: adult P60 BDNF^Met/Met mice; fluoxetine orally 18 mg/kg of body weight per day for 21 days
Description: A common treatment for depression and anxiety disorders in humans is administering serotonin reuptake inhibitors (SSRI's), for which one postulated mechanism of action involves increasing BDNF levels (R. S. Duman, L. M. Monteggia, Biol Psychiatry 59, 1116 (Jun. 15, 2006)). Adult P60 BDNF^Met/Met mice were treated orally with fluoxetine (18 mg/kg of body weight per day) or vehicle for 21 days before assessment in novelty-induced hypophagia. In this conflict test, mice are trained to approach a reward (sweetened milk) in their home cage and then placed in a novel brightly lit cage. The latency to approach and drink the sweetened milk is a measure of the anxiety-related behavior associated with this task (S. C. Dulawa, K. A. Holick, B. Gundersen, R. Hen, Neuropsychopharmacology 29, 1321 (July, 2004)).

P60 BDNF^Met/Met mice = assay: Two anxiety tests, response to chronic fluoxetine; type: in vivo
Excerpt: It was chosen to continue to use fluoxetine as it is the prototypic SSRI that has been established to increase BDNF levels, and for which a significant amount of clinical data on response to affective disorders.

mice = conditions: fluoxetine treatment at P4-P21; Ansorge et al. 2004; cited from earlier work

**Q.** With `CNCCC(Oc1ccc(C(F)(F)F)cc1)c1ccccc1` (centres unmarked) [fluoxetine] as the compound, how does the “anxiety-related behaviors in the elevated plus maze test” value (wildtype mice) read?
**A.** The value was “No effects were observed”.

**Q.** And the “anxiety-related behavior in the elevated plus maze test” value (BDNF^Met mice)?
**A.** Its value is “rescue of altered anxiety-related behavior”.

**Q.** And the “latency to drink in the novel cage” value (BDNF^Met/Met mice)?
**A.** Its value is “did not significantly decrease”.

**Q.** And the “response to chronic fluoxetine as measured by two anxiety tests” value (P60 BDNF^Met/Met mice)?
**A.** Its value is “decreased response”.

**Q.** What about the anxiety-related behaviors (mice) of the same compound?
**A.** Its anxiety-related behaviors is “increased anxiety-related behaviors”.
